Several values for one entry are separate records, joined by “and”; a condition that tells them apart may be missing. Identical values can stand only once. Like-named read-outs stand apart in the source and are kept apart here.
Key:
primary ALL blast cells = experiment: Ex-vivo viability of primary leukemia cells (trypan blue dye exclusion); assay type: cell-based, human
Description: The efficacy of PF-00477736 was confirmed in primary blast cells from 14 newly diagnosed cases including ten BCR-ABL1-positive (71 %) cases and four BCR-ABL1-negative ALL cases (29 %). Leukemic cells were incubated with increasing concentrations of drug (0.1, 0.5, and 1 μM) for 24 h. […]
In order to assess the cell viability after treatment with PF-00477736 (Pfizer), ALL cell lines were seeded in 96-well plates at 50,000 cell/100 μl/well with increasing concentrations of drug (0.005–2 μM) for 24 and 48 h and incubated at 37 °C. Cell viability was assessed by adding WST-1 reagent (Roche Applied Science, Basel, Switzerland) to the culture medium at 1:10 dilution. Cells were incubated at 37 °C, and the optical density was measured by microplate ELISA reader at λ = 450 after 3 h. […] In ex-vivo primary leukemia cells, the effects on cell viability were assessed by counting viable and non-viable cell numbers by the trypan blue dye exclusion method. […] Cellular viability was calculated as a percentage of the viable cells compared to the untreated controls (DMSO 0.1 %).

[1] = test system: c-Jun in B-/T-ALL cell lines; experiment: Western blot against c-Jun; assay type: cell-based, human; details: after treatment; response heterogeneous in T-ALL cell lines
Description: In order to identify gene expression changes specifically correlated with Chk1 inhibition and to better elucidate the mechanism of action of Chk1 inhibitor, gene expression profiling (GEP) analysis was performed by microarray on treated B/T-ALL cell lines (BV-173, SUP-B15, REH, NALM-6, NALM-19, MOLT-4, RPMI-8402, and CCRF-CEM) and on their untreated counterparts (DMSO 0.1 %) after 24 h of drug exposure. […] To identify peculiar critical pathways affected by Chk1 inhibition, the differentially expressed genes were analyzed in terms of biological function using the MetaCore pathway mapping software (GeneGo Inc.) which categorizes genes in pathway maps, Gene Ontology (GO) cellular processes, and cellular and molecular process networks. […] Finally, the three top scored process networks impaired by the treatment with Chk1 inhibitor were as follows: the DNA damage checkpoint, the S phase of cell cycle, and the apoptosis, confirming the specificity of treatment on its target pathways (Additional file 4). […]
To gain insight into the molecular mechanisms responsible for cell death following treatment, functional analyses by Western blot were performed. […] Finally, all these antibodies were detected using the enhanced chemiluminescence kit ECL (GE) and the compact darkroom ChemiDoc-It (UVP).

Q: What does the source list for `Cn1cc(-c2[nH]c3cc(NC(=O)[C@H](N)C4CCCCC4)cc4c3c2C=NNC4=O)cn1` [PF-00477736]?
A: IC50 (primary ALL blast cells; primary ALL sample of one patient per table row (ID in c1), class of IC50 at 24 hours, read-out: Sensitivity): 0.5 to 1 µM and 0.1 to 0.5 µM; IC50 (primary ALL blast cells; primary blast cells, 21 % (3/14) of cases, 24 h, read-out: IC50 at 24 h, poor responders): > 1 µM; c-Jun protein levels [1]: c-Jun protein levels increased in all B-ALL cell lines

— publication PMC4635624, “In vitro and in vivo single-agent efficacy of checkpoint kinase inhibition in acute lymphoblastic leukemia” (Journal of Hematology & Oncology, 2015)
